Assay results reported in paper PMC7025694 (Acta Orthopaedica, 2018).

Assay type: in vivo, pig

**Q.** For CN[C@H](CC(C)C)C(=O)N[C@H]1C(=O)N[C@@H](CC(N)=O)C(=O)N[C@H]2C(=O)N[C@H]3C(=O)N[C@H](C(=O)N[C@H](C(=O)O)c4cc(O)cc(O)c4-c4cc3ccc4O)[C@H](O)c3ccc(c(Cl)c3)Oc3cc2cc(c3O[C@@H]2O[C@H](CO)[C@@H](O)[C@H](O)[C@H]2O[C@H]2C[C@](C)(N)[C@H](O)[C@H](C)O2)Oc2ccc(cc2Cl)[C@H]1O [vancomycin], which “time to a mean MIC of 8 µg/mL” value (intervertebral disc, pig, 1,000 mg i.v. over 100 min, sampling 8 h) is on record?
**A.** The value was “could not be reached”.

**Q.** What about the “Tmax, time to Cmax” value (plasma (unbound), pig, 1,000 mg i.v. single dose over 100 min, mean (95% CI)) of the same compound?
**A.** Its value is 75 (61–89) min.
